Assays:
Test in all cases: relative viability (nuclei count vs DMSO), 5 days (fraction); higher = more cells survive
FH535 = compound: CC1=C(C=CC(=C1)[N+](=O)[O-])NS(=O)(=O)C2=C(C=CC(=C2)Cl)Cl [FH535]
How it was run: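 Viability was read as treated-well nuclei divided by vehicle-well nuclei, using the median across plates. Lung cancer cell lines in 1536-well plates were kept overnight at 37 °C, pinned with five √10-spaced library-drug doses, and after 5 days were Hoechst-stained, imaged at 4× and counted in MetaXpress. Plates passed only with control CV below 25% and at least one doubling.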

FH535 + Trametinib = compound: CC1=C(C=CC(=C1)[N+](=O)[O-])NS(=O)(=O)C2=C(C=CC(=C2)Cl)Cl [FH535] + CC(=O)Nc1cccc(-n2c(=O)n(C3CC3)c(=O)c3c(Nc4ccc(I)cc4F)n(C)c(=O)c(C)c32)c1 [Trametinib] (partner 0.02 µM)
How it was run: (§1)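 Medians of duplicate plates are given as relative viability. That measure is the nuclei count in treated wells divided by the count in vehicle wells. Counts were taken on 4× images of lung cancer cell lines in 1536-well plates, 5 days after pin-tool dosing the day after seeding with one drug alone or a fixed anchor-drug dose plus five library-drug doses (not always all listed) in √10 steps.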

FH535 + Palbociclib = compound: CC1=C(C=CC(=C1)[N+](=O)[O-])NS(=O)(=O)C2=C(C=CC(=C2)Cl)Cl [FH535] + CC(=O)c1c(C)c2cnc(Nc3ccc(N4CCNCC4)cn3)nc2n(C2CCCC2)c1=O [Palbociclib] (partner 0.5 µM)
How it was run: as §1

FH535 + Luminespib = compound: CC1=C(C=CC(=C1)[N+](=O)[O-])NS(=O)(=O)C2=C(C=CC(=C2)Cl)Cl [FH535] + CCNC(=O)c1noc(-c2cc(C(C)C)c(O)cc2O)c1-c1ccc(CN2CCOCC2)cc1 [Luminespib] (partner 0.01 µM)
How it was run: as §1

FH535 + Foretinib = compound: CC1=C(C=CC(=C1)[N+](=O)[O-])NS(=O)(=O)C2=C(C=CC(=C2)Cl)Cl [FH535] + COc1cc2c(Oc3ccc(NC(=O)C4(C(=O)Nc5ccc(F)cc5)CC4)cc3F)ccnc2cc1OCCCN1CCOCC1 [Foretinib] (partner 0.25 µM)
How it was run: as §1

FH535 + OSI-027 = compound: CC1=C(C=CC(=C1)[N+](=O)[O-])NS(=O)(=O)C2=C(C=CC(=C2)Cl)Cl [FH535] + COc1cccc2cc(-c3nc([C@H]4CC[C@H](C(=O)O)CC4)n4ncnc(N)c34)[nH]c12 [OSI-027] (partner 0.5 µM)
How it was run: as §1

FH535 + Tozasertib = compound: CC1=C(C=CC(=C1)[N+](=O)[O-])NS(=O)(=O)C2=C(C=CC(=C2)Cl)Cl [FH535] + Cc1cc(Nc2cc(N3CCN(C)CC3)nc(Sc3ccc(NC(=O)C4CC4)cc3)n2)n[nH]1 [Tozasertib] (partner 0.1 µM)
How it was run: as §1

FH535 + Dasatinib = compound: CC1=C(C=CC(=C1)[N+](=O)[O-])NS(=O)(=O)C2=C(C=CC(=C2)Cl)Cl [FH535] + Cc1nc(Nc2ncc(C(=O)Nc3c(C)cccc3Cl)s2)cc(N2CCN(CCO)CC2)n1 [Dasatinib] (partner 0.075 µM)
How it was run: as §1

FH535 + Phenformin = compound: CC1=C(C=CC(=C1)[N+](=O)[O-])NS(=O)(=O)C2=C(C=CC(=C2)Cl)Cl [FH535] + N=C(N)NC(=N)NCCc1ccccc1 [Phenformin] (partner 250 µM)
How it was run: as §1

FH535 + AZD7762 = compound: CC1=C(C=CC(=C1)[N+](=O)[O-])NS(=O)(=O)C2=C(C=CC(=C2)Cl)Cl [FH535] + NC(=O)Nc1cc(-c2cccc(F)c2)sc1C(=O)N[C@H]1CCCNC1 [AZD7762] (partner 0.2 µM)
How it was run: as §1

FH535 + Pemetrexed = compound: CC1=C(C=CC(=C1)[N+](=O)[O-])NS(=O)(=O)C2=C(C=CC(=C2)Cl)Cl [FH535] + Nc1nc2[nH]cc(CCc3ccc(C(=O)N[C@@H](CCC(=O)O)C(=O)O)cc3)c2c(=O)[nH]1 [Pemetrexed] (partner 0.2 µM)
How it was run: as §1

FH535 + Decitabine = compound: CC1=C(C=CC(=C1)[N+](=O)[O-])NS(=O)(=O)C2=C(C=CC(=C2)Cl)Cl [FH535] + Nc1ncn([C@H]2C[C@H](O)[C@@H](CO)O2)c(=O)n1 [Decitabine] (partner 2 µM)
How it was run: as §1

FH535 + Vorinostat = compound: CC1=C(C=CC(=C1)[N+](=O)[O-])NS(=O)(=O)C2=C(C=CC(=C2)Cl)Cl [FH535] + O=C(CCCCCCC(=O)Nc1ccccc1)NO [Vorinostat] (partner 1 µM)
How it was run: as §1

FH535 + Olaparib = compound: CC1=C(C=CC(=C1)[N+](=O)[O-])NS(=O)(=O)C2=C(C=CC(=C2)Cl)Cl [FH535] + O=C(c1cc(Cc2n[nH]c(=O)c3ccccc23)ccc1F)N1CCN(C(=O)C2CC2)CC1 [Olaparib] (partner 8 µM)
How it was run: as §1

For NCI-H2342, which relative viability (FH535; 0.04 µM) is on record?
The relative viability was 0.96.

And the relative viability (FH535; 0.1265 µM)?
The relative viability was 0.964.

And the relative viability (FH535; 0.4 µM)?
The relative viability was 1.01.

What about the relative viability (FH535; 1.265 µM) of the same cell line?
The relative viability was 0.76.

And the relative viability (FH535 + Trametinib; first compound 0.04 µM)?
The relative viability was 0.794.

What about the relative viability (FH535 + Trametinib; first compound 0.1265 µM) of the same cell line?
The relative viability was 0.823.

And the relative viability (FH535 + Trametinib; first compound 0.4 µM)?
Its relative viability is 0.9.

And the relative viability (FH535 + Trametinib; first compound 1.265 µM)?
The relative viability was 0.842.

And the relative viability (FH535 + Palbociclib; first compound 0.04 µM)?
Its relative viability is 0.524.

And the relative viability (FH535 + Palbociclib; first compound 0.1265 µM)?
Its relative viability is 0.533.

What about the relative viability (FH535 + Palbociclib; first compound 0.4 µM) of the same cell line?
The relative viability was 0.567.

What about the relative viability (FH535 + Palbociclib; first compound 1.265 µM) of the same cell line?
Its relative viability is 0.581.

What about the relative viability (FH535 + Luminespib; first compound 0.04 µM) of the same cell line?
The relative viability was 0.738.

What about the relative viability (FH535 + Luminespib; first compound 0.1265 µM) of the same cell line?
The relative viability was 0.713.

What about the relative viability (FH535 + Luminespib; first compound 0.4 µM) of the same cell line?
The relative viability was 0.705.

What about the relative viability (FH535 + Luminespib; first compound 1.265 µM) of the same cell line?
Its relative viability is 0.6.

What about the relative viability (FH535 + Foretinib; first compound 0.04 µM) of the same cell line?
Its relative viability is 1.19.

What about the relative viability (FH535 + Foretinib; first compound 0.1265 µM) of the same cell line?
Its relative viability is 1.09.

What about the relative viability (FH535 + Foretinib; first compound 0.4 µM) of the same cell line?
Its relative viability is 1.04.

And the relative viability (FH535 + Foretinib; first compound 1.265 µM)?
The relative viability was 0.792.

And the relative viability (FH535 + OSI-027; first compound 0.04 µM)?
Its relative viability is 0.516.

What about the relative viability (FH535 + OSI-027; first compound 0.1265 µM) of the same cell line?
The relative viability was 0.593.

What about the relative viability (FH535 + OSI-027; first compound 0.4 µM) of the same cell line?
Its relative viability is 0.641.

And the relative viability (FH535 + OSI-027; first compound 1.265 µM)?
The relative viability was 0.567.

And the relative viability (FH535 + Tozasertib; first compound 0.04 µM)?
Its relative viability is 0.541.

What about the relative viability (FH535 + Tozasertib; first compound 0.1265 µM) of the same cell line?
The relative viability was 0.564.

And the relative viability (FH535 + Tozasertib; first compound 0.4 µM)?
Its relative viability is 0.445.

And the relative viability (FH535 + Tozasertib; first compound 1.265 µM)?
The relative viability was 0.454.

What about the relative viability (FH535 + Dasatinib; first compound 0.04 µM) of the same cell line?
Its relative viability is 0.305.

And the relative viability (FH535 + Dasatinib; first compound 0.1265 µM)?
The relative viability was 0.339.

And the relative viability (FH535 + Dasatinib; first compound 0.4 µM)?
Its relative viability is 0.281.

What about the relative viability (FH535 + Dasatinib; first compound 1.265 µM) of the same cell line?
The relative viability was 0.297.

And the relative viability (FH535 + Phenformin; first compound 0.04 µM)?
The relative viability was 0.559.

And the relative viability (FH535 + Phenformin; first compound 0.1265 µM)?
Its relative viability is 0.602.

And the relative viability (FH535 + Phenformin; first compound 0.4 µM)?
The relative viability was 0.611.

And the relative viability (FH535 + Phenformin; first compound 1.265 µM)?
The relative viability was 0.437.

What about the relative viability (FH535 + AZD7762; first compound 0.04 µM) of the same cell line?
The relative viability was 0.491.

And the relative viability (FH535 + AZD7762; first compound 0.1265 µM)?
The relative viability was 0.482.

What about the relative viability (FH535 + AZD7762; first compound 0.4 µM) of the same cell line?
Its relative viability is 0.482.

What about the relative viability (FH535 + AZD7762; first compound 1.265 µM) of the same cell line?
Its relative viability is 0.354.

And the relative viability (FH535 + Pemetrexed; first compound 0.04 µM)?
The relative viability was 0.772.

What about the relative viability (FH535 + Pemetrexed; first compound 0.1265 µM) of the same cell line?
The relative viability was 0.748.

What about the relative viability (FH535 + Pemetrexed; first compound 0.4 µM) of the same cell line?
The relative viability was 0.812.

What about the relative viability (FH535 + Pemetrexed; first compound 1.265 µM) of the same cell line?
Its relative viability is 0.634.

What about the relative viability (FH535 + Decitabine; first compound 0.04 µM) of the same cell line?
The relative viability was 0.706.

What about the relative viability (FH535 + Decitabine; first compound 0.1265 µM) of the same cell line?
The relative viability was 0.632.

And the relative viability (FH535 + Decitabine; first compound 0.4 µM)?
Its relative viability is 0.736.

What about the relative viability (FH535 + Decitabine; first compound 1.265 µM) of the same cell line?
Its relative viability is 0.568.

What about the relative viability (FH535 + Vorinostat; first compound 0.04 µM) of the same cell line?
The relative viability was 0.674.

What about the relative viability (FH535 + Vorinostat; first compound 0.1265 µM) of the same cell line?
The relative viability was 0.725.

What about the relative viability (FH535 + Vorinostat; first compound 0.4 µM) of the same cell line?
The relative viability was 0.87.

What about the relative viability (FH535 + Vorinostat; first compound 1.265 µM) of the same cell line?
Its relative viability is 0.721.

What about the relative viability (FH535 + Olaparib; first compound 0.04 µM) of the same cell line?
Its relative viability is 0.471.

What about the relative viability (FH535 + Olaparib; first compound 0.1265 µM) of the same cell line?
Its relative viability is 0.487.

And the relative viability (FH535 + Olaparib; first compound 0.4 µM)?
Its relative viability is 0.434.

What about the relative viability (FH535 + Olaparib; first compound 1.265 µM) of the same cell line?
Its relative viability is 0.363.

From the supplement of paper PMC10307832
